For assay [1], the system named is ovarian cancer cells (SKOV-3 cells). As to the kind of experiment: Death of anticancer agent-resistant ovarian cancer cells on co-treatment with cisplatin (MTT). The format is cell-based. The conditions noted are these: 10 μM pre-treated 30 minutes, cisplatin 50 μM, 24 hours, LY255283 compared to cisplatin alone, AC compounds compared with LY255283 co-treatment. As to the method:
The death of cancer cells was detected using a 3-(4,5-dimethylthiazol-2-yl)-2,5-diphenyltetrazolium bromide (MTT) method. More specifically, 1×10^5 of the ovarian cancer cells (SKOV-3 cells) resistant to the anti-cancer agents were dispensed on a 12-well culture dish, and cultured for 24 hours. A 0.5% serum RPMI medium was pre-treated with each of the compound prepared in one of the examples (10 μM), 10 μM of DMSO (compound solvent) as a control, and 10 μM of LY255283 as a positive control for 30 minutes. Afterward, 50 μM of an anti-cancer agent, cisplatin, was treated, and then the cells were cultured 24 hours. A 20 μL of an MTT solution (5 mg/mL, Sigma-Aldrich) was added to each well, and the cells were cultured in a humid CO2 incubator at 37° C. for 4 hours. Afterward, the supernatant was removed, and 500 µL of DMSO was added to each well to dissolve insoluble violet formazan crystals. Absorbance was measured using a microplate reader (Molecular Devices, Sunnyvale, Calif.) at 550 nm, and the measurement was repeated three times.

In the next assay the target is T1, BLT1 (Homo sapiens, UniProt Q15722).
T1 construct: expressed in transfected cells; host or cells: CHO cells (CHO-BLT1)
T1 sequence (Q15722 whole entry, species assumed): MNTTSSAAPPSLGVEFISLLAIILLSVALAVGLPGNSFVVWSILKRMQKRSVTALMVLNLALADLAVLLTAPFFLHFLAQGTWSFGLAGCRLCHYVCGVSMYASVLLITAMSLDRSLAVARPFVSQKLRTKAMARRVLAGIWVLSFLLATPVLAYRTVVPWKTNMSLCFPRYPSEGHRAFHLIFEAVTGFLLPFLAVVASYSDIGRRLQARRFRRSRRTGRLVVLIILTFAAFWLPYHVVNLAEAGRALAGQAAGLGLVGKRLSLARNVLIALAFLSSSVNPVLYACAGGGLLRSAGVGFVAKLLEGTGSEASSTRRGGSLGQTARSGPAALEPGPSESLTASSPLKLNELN
Briefly: LTB4-induced chemotactic motility of BLT1-expressing cells (Transwell). The conditions noted are these: CHO-BLT1 cells, LTB4 10 nM. The format is cell-based. As to the method: (§1) Chemotactic motility was analyzed using a Transwell chamber including a polycarbonate filter (8-μm pore size, Corning Costar) with a 6.5-mm diameter. Specifically, the lower surface of the filter was coated with 10 μg/mL fibronectin in a serum-free RPMI 1640 medium at 37° C. for 1 hour. The experiment was performed by placing the filter dried and coated with RPMI 1640 media containing various amounts of LTB4 in the lower wells of the Transwell chamber, and loading CHO cells, which stably express both BLT1 and BLT2, into the upper wells containing serum-free RPMI 1640 media finally at 2×10^4 cells/100 μL. To evaluate the effect of inhibitors, the cells were pre-treated with each inhibitor for 30 minutes before dispensing. After the cells were cultured at 37° C. in 5% CO2 for 3 hours, the filters were fixed with methanol for 3 minutes, and stained with hematoxylin and eosin for 10 minutes. […] The chemotactic motility was quantitatively analyzed by counting the cells on the lower side of the filter under an optical microscope (magnification, 200×). For each analysis, 6 fields were subjected to counting, each sample was analyzed twice, and the analysis was repeated three times.

Assay [2] has as its system BLT2-expressing cells (CHO-BLT2 cells). As to the kind of experiment: LPA-induced chemotactic motility of CHO-BLT2 cells (Transwell). Format: cell-based. The conditions noted are these: LPA 100 nM. As to the method:
Chemotactic motility was analyzed using a Transwell chamber including a polycarbonate filter (8-μm pore size, Corning Costar) with a 6.5-mm diameter. […] To evaluate the effect of inhibitors, the cells were pre-treated with each inhibitor for 30 minutes before dispensing. After the cells were cultured at 37° C. in 5% CO2 for 3 hours, the filters were fixed with methanol for 3 minutes, and stained with hematoxylin and eosin for 10 minutes. […] The chemotactic motility was quantitatively analyzed by counting the cells on the lower side of the filter under an optical microscope (magnification, 200×). For each analysis, 6 fields were subjected to counting, each sample was analyzed twice, and the analysis was repeated three times.

In assay [3] the target is T2, BLT2 (Homo sapiens, UniProt Q9NPC1).
T2 sequence (Q9NPC1 with tags, fused parts or gaps): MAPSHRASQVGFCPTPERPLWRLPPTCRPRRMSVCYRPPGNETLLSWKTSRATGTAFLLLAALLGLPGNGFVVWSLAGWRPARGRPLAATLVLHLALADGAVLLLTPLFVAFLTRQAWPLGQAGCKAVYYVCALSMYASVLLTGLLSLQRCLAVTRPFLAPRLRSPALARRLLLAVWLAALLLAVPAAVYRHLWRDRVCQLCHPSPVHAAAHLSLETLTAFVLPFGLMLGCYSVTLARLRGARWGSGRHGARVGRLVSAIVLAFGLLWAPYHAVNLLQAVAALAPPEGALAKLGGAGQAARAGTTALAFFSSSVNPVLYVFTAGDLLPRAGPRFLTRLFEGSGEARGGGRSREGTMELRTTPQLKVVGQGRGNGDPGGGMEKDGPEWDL
As to the kind of experiment: biochemical. As to the method:
(§2) In addition, in order to prepare stable CHO/BLT2 clones, CHO-K1 cells were transformed with pcDNA3-long form BLT2 encoding HA-tagged human BLT2, and selected with 0.4 mg/ml of G418 (Invitrogen, Carlsbad, Calif., USA).

A further assay has as its system asthma-induced mice. As to the kind of experiment: Airway hyperresponsiveness (AHR) in OVA asthma-induced mice. The format is in vivo. An excerpt: (§3) Mast cells play a pivotal role in the initial reaction to asthma, and when an allergen enters the body from the outside through an airway, the mast cells are activated, thereby secreting various cytokines (interleukin-4 and interleukin-13). Due to the cytokines, the influx of inflammatory cells, and the generation of mucus and the airway contraction occur. The inventors used 7-week-old (18 to 20 g) female BALB/c mice provided by Orient (Seoungnam, Korea) for the experiment to confirm the anti-asthma effect, and asthma was induced in the mice. On day 1 and day 14, 2.5 mg of an adjuvant aluminum hydroxide gel (alum; Pierce, Rockford, Ill.) containing a […] of ovalbumin (OVA) was injected intraperitoneally to sensitize the female […] mice. After the two initial sensitizations, on day 21, day 22 and day 23, 1% OVA was sprayed into the mice using an ultrasonic nebulizer. […] After the initial sensitizations, on day 24, AHR was detected, and on day 25, the mice were dissected to observe asthma phenotypes such as the expression of an inflammatory cytokine IL-4, and the influx of the inflammatory cells (neutrophils). In addition, the AHR detection was performed after an airway constrictor methacholine (6.25 to 50 mg/ml depending on conditions) was administered to the mice. The administration of the airway constrictor was performed by spraying through an inlet of the chamber using an ultrasonic nebulizer for 3 minutes. The AHR was analyzed using an enhanced pause as the indicator of the asthma phenomenon.

In a further assay the test system is interleukin-4 (IL-4). As to the kind of experiment: IL-4 production in severely asthma-induced mice. The format is in vivo. The conditions noted are these: severely asthma-induced mice (FIG. 8), cells separated from the abdominal cavity, pre-treated (method 5 mg/kg intraperitoneally).
Source text: as §3, with “The administration of the airway constrictor was performed by spraying through an inlet of the chamber using an ultrasonic nebulizer for 3 minutes.” left out

Assay [4] deals with BLT2-expressing cells (CHO-BLT2 cells). As to the kind of experiment: Inhibition of LTB4-induced growth of BLT2-expressing cells (MTT). Format: cell-based, human. The conditions noted are these: LTB4 300 nM, 24 hours. As to the method:
Cell viability according to treatment of the compounds prepared in the examples were measured by a 3-(4,5-dimethylthiazol-2-yl)-2,5-diphenyltetrazolium bromide (MTT) method.
More specifically, 1×10^4 each of the BLT2-nonexpressing cells (CHO-pcDNA3.1 cells) and BLT2-expressing cells (CHO-BLT2 cells), which were prepared in Experimental Example 1, were dispensed in a […], and cultured for 24 hours. Afterward, the culture medium was removed, a serum-free RPMI medium was added, and after two hours, the cells were pre-treated with each of the compound prepared in one of the examples (10 μM), 10 μM DMSO (compound solvent) as a control, and 10 μM of 1-[5-ethyl-2-hydroxy-4-[[6-methyl-6-(1H-tetrazol-5-yl)heptyl]oxy]phenyl]-ethanone (LY255283; Cayman) as a positive control for 1 hour. Subsequently, after treatment of LTB4 (300 nM), the cells were cultured for 24 hours. 20 μL of an MTT solution (5 mg/mL, Sigma-Aldrich) was added to each well, the cells were cultured in a humid CO2 incubator at 37° C. for 4 hours, and then the supernatant was removed, and 200 μL of DMSO was added to each well to dissolve insoluble violet formazan crystals. Absorbance was measured using a microplate reader (Molecular Devices, Sunnyvale, Calif.) at 550 nm, and the measurement was repeated three times.

For assay [5], the target named is T2, BLT2. Briefly: LTB4-induced BLT2-dependent chemotactic motility (Transwell). The format is cell-based. Set-up: expressed in transfected cells. The conditions noted are these: CHO-BLT2 cells, LTB4 300 nM. As to the method:
as §2, §1

Where [6] appears, read: severely asthma-induced mice (FIG. 7), airway constrictor 50 mg/ml, pre-treated (method 5 mg/kg intraperitoneally).

The IC50 is the midpoint of a concentration-inhibition curve. A low value points to higher potency.

As to `CCCCC(=O)N(Cc1ccc(-c2ccc(O)cc2)cc1)c1cccc(F)c1` [AC-1070, N-(3-fluorophenyl)-N-((4′-hydroxybiphenyl-4-yl)methyl)pentaneamide], in assay [1], the “death of cancer cells on co-treatment with cisplatin” value (“death of cancer cells” below) was “highly increase”.
As to `CCCCC(=O)N(Cc1ccc(-c2ccc(C(=O)O)cc2)cc1)c1ccc(F)cc1` [AC-1072, 4′-((N-(4-fluorophenyl)pentaneamido)methyl)biphenyl-4-carboxylic acid], the “death of cancer cells” value in assay [1] was “highly increase”.
Same read-out and setting: under `CCCCC(=O)N(Cc1ccc(-c2ccc(OCC(=O)O)cc2)cc1)c1ccccc1` [AC-1073, 2-(4′-((N-phenylpentaneamido)methyl)biphenyl-4-yloxy)acetic acid] stands “highly increase”.
With `CCCCC(=O)N(Cc1ccc(-c2ccc(OCC(=O)O)cc2)cc1)c1cccc(F)c1` [AC-1074, 2-(4′-((N-(3-fluorophenyl)pentaneamido)methyl)biphenyl-4-yloxy)acetic acid], the “death of cancer cells” value in assay [1] is given as “highly increase”. At BLT1 (10 μM pre-treatment), the “change in chemotactic motility compared with LTB4 (DMSO+)” value is “no change”. Further, the “change in chemotactic motility compared with LPA (DMSO+)” value in assay [2] (10 μM pre-treatment) is listed as “no change”. On BLT2 [3], the 50% inhibitory concentration (IC50) stood at 140 nM. Besides, the AHR reduced in the assay on asthma-induced mice (asthma-induced mice (FIG. 6), airway constrictor methacholine 50 mg/ml, pre-treated (printed 10 μM; method 5 mg/kg intraperitoneally)) was determined as 42%; with asthma-induced mice (setting [6]) it was 59%. Also, in the assay with interleukin-4 (IL-4), the “production of IL-4 reduced” value was 35.5%.
Turning to `CCCCC(=O)N(Cc1ccc(-c2ccc(OC)cc2)cc1)c1cccc(F)c1` [AC-1646, N-(3-fluorophenyl)-N-((4′-methoxybiphenyl-4-yl)methyl) pentaneamide], the growth inhibitory effect in assay [4] (compound 10 μM pre-treated 1 hour) came to 72.1%.
Take `CCCCC/C=C\C[C@@H](O)/C=C/C=C/C=C\[C@@H](O)CCCC(=O)O` [LTB4, leukotriene B4, reference compound]: the results for the “chemotactic motility increase compared with ethanol (DMSO−)” value on BLT1 and on BLT2 [5] were 2.8 times and 2.9 times, respectively.
Consider `CCc1cc(C(C)=O)c(O)cc1OCCCCCC(C)(C)c1nnn[nH]1` [LY255283, 1-[5-ethyl-2-hydroxy-4-[[6-methyl-6-(1H-tetrazol-5-yl)heptyl]oxy]phenyl]-ethanone, reference compound], for which the “cell growth compared with control DMSO” value in assay [4] (pre-treated with 10 μM) is listed as “approximately 90%”. Besides, in assay [1], the “death of cancer cells” value is “increased”. The AHR reduced in the assay on asthma-induced mice (setting [6]) stood at 69.2%. The “production of IL-4 reduced” value with interleukin-4 (IL-4) came to 67.2%. For the same molecule, at BLT2 [5] (10 μM pre-treatment), the “chemotactic motility compared with those treated with the ligand LTB4” value is reported as 90%.
On to “lysophosphatidic acid [LPA, reference compound]”, for which, in assay [2], the “chemotactic motility increase compared with ethanol (DMSO−)” value was determined as 3.4 times.
